Activity calls are given as the source filed them.
Assays:
[1] = target: T1, Heat shock factor protein 1 (Mus musculus, UniProt P38532); assay: decrease of HSF1-responsive luciferase luminescence – cell-based, NIH3T3, dose retest, confirmation (AID 2382); assay type: functional;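 also: NIH3T3 fibroblasts with HSF1-driven luciferase reporter stressed by proteasome inhibitor MG132; luminescence from HSF1-driven luciferase expression after 8 hours of MG132 stress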
T1 sequence (P38532 whole entry): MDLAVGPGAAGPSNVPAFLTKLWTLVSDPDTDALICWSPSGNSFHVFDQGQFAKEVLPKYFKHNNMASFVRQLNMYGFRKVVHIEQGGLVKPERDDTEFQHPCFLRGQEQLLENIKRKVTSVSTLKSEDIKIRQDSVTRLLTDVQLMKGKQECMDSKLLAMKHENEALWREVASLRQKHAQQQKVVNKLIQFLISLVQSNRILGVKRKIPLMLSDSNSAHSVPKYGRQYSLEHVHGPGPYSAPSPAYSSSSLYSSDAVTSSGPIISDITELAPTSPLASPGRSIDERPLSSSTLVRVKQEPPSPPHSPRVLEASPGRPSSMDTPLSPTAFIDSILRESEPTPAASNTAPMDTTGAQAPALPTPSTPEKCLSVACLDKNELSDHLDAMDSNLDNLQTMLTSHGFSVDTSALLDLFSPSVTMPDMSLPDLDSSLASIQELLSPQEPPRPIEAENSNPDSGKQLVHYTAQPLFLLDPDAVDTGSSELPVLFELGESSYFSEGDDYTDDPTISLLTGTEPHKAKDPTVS

Large T antigen = Large T antigen (Simian virus 40, UniProt P03070); assay type: functional, Betapolyomavirus macacae;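 also: Confirmatory-stage PubChem screen for compounds that inhibit SV40 T antigen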
Leucine aminopeptidase = target: T2, Leucine aminopeptidase (Plasmodium falciparum 3D7, UniProt Q8IL11); assay: P. falciparum M17LAP inhibitors, primary screen, biochemical, fluorogenic H-Leu-NHMec substrate, 1536-well (AID 1619); assay type: functional
T2 sequence (Q8IL11 whole entry): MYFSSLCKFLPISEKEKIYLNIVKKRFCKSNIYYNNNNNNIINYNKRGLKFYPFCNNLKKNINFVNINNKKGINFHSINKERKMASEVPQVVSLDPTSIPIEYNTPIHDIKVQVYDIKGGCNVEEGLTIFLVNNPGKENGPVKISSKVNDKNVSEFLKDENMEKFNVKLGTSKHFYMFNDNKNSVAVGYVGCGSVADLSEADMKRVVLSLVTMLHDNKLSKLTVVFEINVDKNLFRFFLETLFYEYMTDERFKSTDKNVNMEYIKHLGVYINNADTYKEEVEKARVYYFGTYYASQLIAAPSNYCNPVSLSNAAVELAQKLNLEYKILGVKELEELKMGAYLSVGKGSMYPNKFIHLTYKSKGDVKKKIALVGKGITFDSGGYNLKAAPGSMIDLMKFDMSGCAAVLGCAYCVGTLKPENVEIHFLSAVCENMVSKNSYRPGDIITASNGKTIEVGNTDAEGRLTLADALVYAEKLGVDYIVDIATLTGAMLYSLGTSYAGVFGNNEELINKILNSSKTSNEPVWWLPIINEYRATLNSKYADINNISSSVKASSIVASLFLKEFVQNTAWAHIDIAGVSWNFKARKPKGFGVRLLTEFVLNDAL

[2] = reduction of Shn3 3'UTR-driven luciferase in osteoblasts – cell-based, Clone20 osteoblasts, firefly luciferase, cherry-picked, dose response (AID 624132); assay type: functional;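 also: firefly luciferase luminescence from reporter carrying the Shn3 3'UTR in osteoblasts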
[3] = non-specific 3'UTR reporter inhibition in Clone20-Shn3RL – cell-based, Renilla luciferase, cherry-picked, counter-screen for Shn3 inhibitor project, dose response (AID 624133); assay type: functional
Fatty acid synthase [4] = target: T3, Fatty acid synthase (Homo sapiens, UniProt P49327); assay: inhibition of human FAS-TE enzyme activity – biochemical, kinetic fluorescence intensity, dose response (AID 624326); assay type: functional;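 also: rate of fluorescence rise from hydrolysis of a fluorogenic O-methyl fluorescein ester substrate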
Fatty acid synthase [5] = target: T3, Fatty acid synthase; assay: inhibition of human FAS-TE enzyme activity – biochemical, endpoint fluorescence intensity, uHTS hits, dose response (AID 624327); assay type: functional;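 also: fluorescence from hydrolysis of an O-methyl fluorescein acyl ester substrate by the enzyme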
Genome polyprotein = Genome polyprotein (dengue virus type 2, UniProt P29990); assay: flavivirus cap methylation enzyme inhibition – biochemical, confirmation dose response, primary screen (AID 588689); assay type: functional
[6] = target: FAD-linked sulfhydryl oxidase ALR (Homo sapiens, UniProt P55789); assay: ALR-catalysed DTT oxidation blockers – biochemical, H2O2 detection, luminescence, cherry-pick, dose response (AID 493248)
[7] = P. falciparum Dd2 growth inhibitors, dose response, SYBR Green, cherry-picked samples (AID 1159567); assay type: functional, cell-based
[8] = target: T4, Rac GTPase-activating protein 1 (Homo sapiens, UniProt Q9H0H5); assay: blockers of MgcRacGAP-driven Rac1 GTP hydrolysis – biochemical, ADP Hunter fluorescence, primary and confirmatory, confirmation (AID 624330); assay type: functional
T4 sequence (Q9H0H5 whole entry): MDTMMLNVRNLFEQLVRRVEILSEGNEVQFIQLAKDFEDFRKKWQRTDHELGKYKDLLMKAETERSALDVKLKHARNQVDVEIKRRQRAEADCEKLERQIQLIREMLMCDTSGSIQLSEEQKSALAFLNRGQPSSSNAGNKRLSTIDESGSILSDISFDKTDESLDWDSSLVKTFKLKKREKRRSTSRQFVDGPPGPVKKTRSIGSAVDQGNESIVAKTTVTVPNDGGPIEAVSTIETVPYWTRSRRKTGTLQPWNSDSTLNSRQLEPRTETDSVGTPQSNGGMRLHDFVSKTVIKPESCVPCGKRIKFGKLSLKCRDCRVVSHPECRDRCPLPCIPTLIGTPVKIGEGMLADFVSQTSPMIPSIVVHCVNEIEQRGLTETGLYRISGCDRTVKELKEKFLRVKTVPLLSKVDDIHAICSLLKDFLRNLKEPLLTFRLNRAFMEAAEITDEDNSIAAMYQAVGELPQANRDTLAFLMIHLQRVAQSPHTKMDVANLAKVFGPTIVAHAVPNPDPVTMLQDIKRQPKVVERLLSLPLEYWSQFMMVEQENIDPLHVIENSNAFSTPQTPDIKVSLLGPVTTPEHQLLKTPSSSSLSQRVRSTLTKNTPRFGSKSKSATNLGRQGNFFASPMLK

Protein RecA = target: T5, Protein RecA (Mycobacterium tuberculosis, UniProt P9WHJ3); assay: Fluorescence Cell-Free Homogeneous Dose Retest to Identify Inhibitors of RecA-Intein Splicing Activity. [Related pubchem assays (depositor defined):AID2097, AID2223, AID489010, AID492950]; assay type: functional
T5 sequence (P9WHJ3 whole entry): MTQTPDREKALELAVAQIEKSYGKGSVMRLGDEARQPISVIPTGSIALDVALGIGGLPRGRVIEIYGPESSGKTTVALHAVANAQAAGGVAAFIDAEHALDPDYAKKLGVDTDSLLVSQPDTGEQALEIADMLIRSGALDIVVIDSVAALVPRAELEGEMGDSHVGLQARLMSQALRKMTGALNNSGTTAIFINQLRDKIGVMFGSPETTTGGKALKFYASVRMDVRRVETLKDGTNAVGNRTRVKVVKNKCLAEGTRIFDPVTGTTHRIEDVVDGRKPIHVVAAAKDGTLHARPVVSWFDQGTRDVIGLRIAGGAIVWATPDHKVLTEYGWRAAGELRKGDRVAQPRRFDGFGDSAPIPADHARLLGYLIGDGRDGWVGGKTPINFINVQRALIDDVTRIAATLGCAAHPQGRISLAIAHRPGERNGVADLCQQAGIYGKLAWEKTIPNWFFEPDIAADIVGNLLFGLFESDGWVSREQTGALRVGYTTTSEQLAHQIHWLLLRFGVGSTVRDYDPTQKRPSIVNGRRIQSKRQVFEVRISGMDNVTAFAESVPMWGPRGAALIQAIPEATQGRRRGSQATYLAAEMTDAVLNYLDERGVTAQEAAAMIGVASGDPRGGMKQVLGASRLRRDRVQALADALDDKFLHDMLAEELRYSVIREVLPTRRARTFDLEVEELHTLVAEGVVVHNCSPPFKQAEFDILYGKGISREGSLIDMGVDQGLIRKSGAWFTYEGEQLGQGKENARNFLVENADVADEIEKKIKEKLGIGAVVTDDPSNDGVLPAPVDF

Chain of Large T antigen (P03070 whole entry): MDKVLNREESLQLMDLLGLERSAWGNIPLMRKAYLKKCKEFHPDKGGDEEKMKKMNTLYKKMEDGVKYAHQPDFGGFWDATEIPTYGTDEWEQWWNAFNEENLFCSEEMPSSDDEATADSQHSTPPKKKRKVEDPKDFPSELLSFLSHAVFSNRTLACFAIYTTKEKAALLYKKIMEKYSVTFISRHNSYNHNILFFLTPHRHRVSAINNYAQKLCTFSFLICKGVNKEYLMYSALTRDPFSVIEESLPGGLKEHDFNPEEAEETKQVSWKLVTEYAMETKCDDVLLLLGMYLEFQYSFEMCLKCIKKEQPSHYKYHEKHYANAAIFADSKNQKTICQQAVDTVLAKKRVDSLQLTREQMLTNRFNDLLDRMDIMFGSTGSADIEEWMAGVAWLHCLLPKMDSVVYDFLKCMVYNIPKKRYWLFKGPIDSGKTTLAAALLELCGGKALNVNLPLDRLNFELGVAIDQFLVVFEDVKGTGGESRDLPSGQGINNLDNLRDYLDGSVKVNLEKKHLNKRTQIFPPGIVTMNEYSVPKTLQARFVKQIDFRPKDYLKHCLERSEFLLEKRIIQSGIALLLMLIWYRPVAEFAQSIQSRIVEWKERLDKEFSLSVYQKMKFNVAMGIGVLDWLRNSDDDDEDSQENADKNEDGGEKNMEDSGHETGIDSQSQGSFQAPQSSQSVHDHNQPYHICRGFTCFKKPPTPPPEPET
Chain of Genome polyprotein (P29990 2492-3391 limits assumed): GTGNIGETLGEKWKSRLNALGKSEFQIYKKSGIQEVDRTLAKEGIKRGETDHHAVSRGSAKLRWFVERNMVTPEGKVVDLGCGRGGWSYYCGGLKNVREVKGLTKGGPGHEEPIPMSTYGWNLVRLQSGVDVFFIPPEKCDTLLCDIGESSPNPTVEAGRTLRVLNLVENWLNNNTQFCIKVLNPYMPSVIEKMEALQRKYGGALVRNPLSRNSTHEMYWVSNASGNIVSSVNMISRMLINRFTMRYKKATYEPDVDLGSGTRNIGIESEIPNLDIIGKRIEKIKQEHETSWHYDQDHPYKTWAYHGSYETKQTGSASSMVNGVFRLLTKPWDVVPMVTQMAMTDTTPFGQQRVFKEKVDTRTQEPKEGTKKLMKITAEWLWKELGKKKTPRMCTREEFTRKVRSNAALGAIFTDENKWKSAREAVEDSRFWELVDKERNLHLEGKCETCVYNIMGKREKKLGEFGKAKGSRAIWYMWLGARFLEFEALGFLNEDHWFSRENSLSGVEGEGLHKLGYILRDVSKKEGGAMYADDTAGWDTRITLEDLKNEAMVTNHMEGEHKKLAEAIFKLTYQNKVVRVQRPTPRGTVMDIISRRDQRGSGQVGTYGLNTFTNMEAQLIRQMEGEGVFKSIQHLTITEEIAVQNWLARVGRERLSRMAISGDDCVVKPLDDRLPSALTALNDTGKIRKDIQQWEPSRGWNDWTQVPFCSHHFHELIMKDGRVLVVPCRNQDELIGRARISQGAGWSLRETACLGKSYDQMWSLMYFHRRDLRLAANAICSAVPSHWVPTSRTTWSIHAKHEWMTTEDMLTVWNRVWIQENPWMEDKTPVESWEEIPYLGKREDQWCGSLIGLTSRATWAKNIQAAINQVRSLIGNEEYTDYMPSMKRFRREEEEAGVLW
T3 sequence (P49327 whole entry): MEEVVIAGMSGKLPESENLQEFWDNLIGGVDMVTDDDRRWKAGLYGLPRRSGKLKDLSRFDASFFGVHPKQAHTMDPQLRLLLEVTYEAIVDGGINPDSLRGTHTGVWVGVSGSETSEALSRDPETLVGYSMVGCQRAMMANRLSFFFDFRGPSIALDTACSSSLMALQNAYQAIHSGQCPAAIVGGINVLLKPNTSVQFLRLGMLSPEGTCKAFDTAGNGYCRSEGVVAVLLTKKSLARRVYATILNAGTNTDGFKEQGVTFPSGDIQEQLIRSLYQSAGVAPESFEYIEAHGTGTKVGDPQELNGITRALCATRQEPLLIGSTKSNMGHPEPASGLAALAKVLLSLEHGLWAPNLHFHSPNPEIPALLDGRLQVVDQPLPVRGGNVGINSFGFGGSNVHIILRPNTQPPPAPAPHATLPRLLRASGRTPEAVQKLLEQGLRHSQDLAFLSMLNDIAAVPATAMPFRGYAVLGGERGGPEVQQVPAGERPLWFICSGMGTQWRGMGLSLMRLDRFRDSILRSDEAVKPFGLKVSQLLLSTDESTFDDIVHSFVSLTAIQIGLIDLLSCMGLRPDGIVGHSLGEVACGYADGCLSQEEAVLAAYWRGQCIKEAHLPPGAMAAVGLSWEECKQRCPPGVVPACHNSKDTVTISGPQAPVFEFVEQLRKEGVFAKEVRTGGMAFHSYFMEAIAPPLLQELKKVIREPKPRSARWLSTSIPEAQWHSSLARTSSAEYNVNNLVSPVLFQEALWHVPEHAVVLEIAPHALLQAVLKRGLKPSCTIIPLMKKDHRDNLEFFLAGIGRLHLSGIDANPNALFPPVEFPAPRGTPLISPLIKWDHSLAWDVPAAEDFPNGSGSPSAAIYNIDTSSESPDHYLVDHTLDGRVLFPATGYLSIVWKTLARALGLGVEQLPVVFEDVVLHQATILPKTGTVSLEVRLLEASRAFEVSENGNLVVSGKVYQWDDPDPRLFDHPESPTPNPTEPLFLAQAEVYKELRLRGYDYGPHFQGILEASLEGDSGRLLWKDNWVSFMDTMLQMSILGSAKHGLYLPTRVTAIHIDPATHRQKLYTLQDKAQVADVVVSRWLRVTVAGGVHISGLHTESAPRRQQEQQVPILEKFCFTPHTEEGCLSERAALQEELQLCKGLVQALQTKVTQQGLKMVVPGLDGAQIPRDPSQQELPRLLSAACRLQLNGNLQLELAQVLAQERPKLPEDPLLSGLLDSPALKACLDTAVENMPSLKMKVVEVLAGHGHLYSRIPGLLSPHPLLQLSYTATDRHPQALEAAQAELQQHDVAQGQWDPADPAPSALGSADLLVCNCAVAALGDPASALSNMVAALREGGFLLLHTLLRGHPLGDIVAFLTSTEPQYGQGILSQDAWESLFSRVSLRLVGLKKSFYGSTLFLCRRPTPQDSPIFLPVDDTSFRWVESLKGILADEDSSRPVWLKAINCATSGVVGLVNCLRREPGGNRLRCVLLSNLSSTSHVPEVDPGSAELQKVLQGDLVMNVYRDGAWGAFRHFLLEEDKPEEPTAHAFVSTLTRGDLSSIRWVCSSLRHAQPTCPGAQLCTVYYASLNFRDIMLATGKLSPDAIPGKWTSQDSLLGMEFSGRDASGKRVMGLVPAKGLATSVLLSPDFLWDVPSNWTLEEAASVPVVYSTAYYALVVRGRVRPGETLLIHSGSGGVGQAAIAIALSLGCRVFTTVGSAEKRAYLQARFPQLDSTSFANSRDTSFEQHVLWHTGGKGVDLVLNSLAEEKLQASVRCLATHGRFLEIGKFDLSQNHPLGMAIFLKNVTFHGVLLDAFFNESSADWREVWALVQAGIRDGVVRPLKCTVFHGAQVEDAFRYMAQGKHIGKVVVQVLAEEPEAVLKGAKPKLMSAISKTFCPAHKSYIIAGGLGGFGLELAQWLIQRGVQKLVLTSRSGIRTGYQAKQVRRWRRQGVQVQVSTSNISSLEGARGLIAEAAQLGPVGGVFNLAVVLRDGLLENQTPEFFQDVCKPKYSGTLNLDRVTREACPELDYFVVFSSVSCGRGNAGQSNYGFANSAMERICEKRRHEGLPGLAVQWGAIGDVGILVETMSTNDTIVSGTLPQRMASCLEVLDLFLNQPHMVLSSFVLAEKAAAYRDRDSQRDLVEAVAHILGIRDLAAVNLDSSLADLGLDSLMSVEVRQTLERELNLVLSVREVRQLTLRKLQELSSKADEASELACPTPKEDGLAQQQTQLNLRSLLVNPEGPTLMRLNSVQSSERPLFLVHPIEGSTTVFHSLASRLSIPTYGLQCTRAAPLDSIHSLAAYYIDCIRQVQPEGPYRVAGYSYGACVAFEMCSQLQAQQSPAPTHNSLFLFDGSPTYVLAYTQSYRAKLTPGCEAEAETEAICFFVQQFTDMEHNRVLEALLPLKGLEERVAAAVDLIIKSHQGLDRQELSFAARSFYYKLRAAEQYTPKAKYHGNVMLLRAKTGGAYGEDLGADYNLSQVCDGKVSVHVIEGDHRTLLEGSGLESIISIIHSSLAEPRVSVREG
Chain of FAD-linked sulfhydryl oxidase ALR (P55789 whole entry): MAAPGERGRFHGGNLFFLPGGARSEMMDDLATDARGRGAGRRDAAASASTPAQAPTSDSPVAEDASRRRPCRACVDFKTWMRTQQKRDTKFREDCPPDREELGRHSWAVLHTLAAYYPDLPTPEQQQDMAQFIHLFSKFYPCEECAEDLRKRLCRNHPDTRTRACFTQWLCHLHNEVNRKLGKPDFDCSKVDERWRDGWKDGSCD

## Cc1ccc(OCC(=O)NCCNC(=O)c2ccco2)cc1C
[1]
  EC50: > 195 µM (not active)

## Cc1oc(-c2cc3c(cc2Cl)OCO3)nc1CN1CCCC1c1ccc(F)cc1 (configuration not stated)
[1]
  EC50: > 195 µM (not active)

## CCOc1ccc(CC(=O)N2CCC3(CC2)NCCc2[nH]cnc23)cc1
[1]
  EC50: > 195 µM (not active)

## Cc1ccc(C(=O)NCC(=O)NCC(=O)OCC(=O)c2ccc(F)cc2)cc1
[1]
  EC50: > 195 µM (not active)

## Cc1nc2cc(N=NN(C)C)ccc2[nH]1
Large T antigen
  IC50: > 100 µM (active)

## Nc1[nH]nc2nc(N3CCOCC3)nc(-c3ccccc3)c12
Leucine aminopeptidase
  IC50: 6.77 µM (active)

## Cc1cc(-c2ccc(N=Nc3c(S(=O)(=O)O)cc4cc(S(=O)(=O)O)cc(N)c4c3O)c(C)c2)ccc1N=Nc1c(S(=O)(=O)O)cc2cc(S(=O)(=O)O)cc(N)c2c1O
Large T antigen
  IC50: 2.38 µM (active)

## CN(C)S(=O)(=O)c1cccc(/N=c2\scc(-c3ccc4c(c3)NC(=O)CO4)n2CC2CCCO2)c1 (configuration not stated)
[2]
  AC50: 14 µM (active)
[3]
  AC50: 22.5 µM (active)

## Cc1cc(Br)ccc1NC(=O)CN(C)C(=O)c1cc([N+](=O)[O-])ccc1N1CCOCC1
Fatty acid synthase [4]
  IC50: 4.65 µM (active)
Fatty acid synthase [5]
  IC50: 8.23 µM (active)

## CC(=O)N(C(C)=O)N1C(=O)C2C3c4ccccc4C(c4ccccc43)C2C1=O (configuration not stated)
Genome polyprotein
  IC50: 53.8 µM (active)

## O=C(Nc1nc(=O)n(C(=O)C2CC2)s1)c1ccccc1
Leucine aminopeptidase
  IC50: 40.7 µM (active)

## CSc1ccc(Cl)c(C(=O)OCC(=O)NCc2ccco2)c1
Leucine aminopeptidase
  IC50: 49.9 µM (active)

## COc1cccc(/C=C/c2nc(O)nc(O)c2[N+](=O)[O-])c1O
Genome polyprotein
  IC50: 72.5 µM (active)
[6]
  AC50: 39.1 µM (active)

## O=C(O)CC12CC3CC(C1)CC(n1ncc(NCc4ccc5c(c4)OCO5)c(Cl)c1=O)(C3)C2
Leucine aminopeptidase
  IC50: 40.6 µM (active)

## O=C1CN(C(=O)c2cc([N+](=O)[O-])ccc2Cl)C(c2ccccc2)c2cc(F)ccc2N1 (configuration not stated)
Fatty acid synthase [4]
  IC50: 1.99 µM (active)
Fatty acid synthase [5]
  IC50: 1.36 µM (active)

## CO[C@H]1CN(C)C(=O)c2ccc(NC(=O)Nc3ccc(C(F)(F)F)cc3)cc2OC[C@@H](C)NC[C@@H]1C
[7]
  AC50: 9.45 µM (active)

## O=C1CS/C(=C\S(=O)(=O)c2ccc(Cl)cc2)N1
Leucine aminopeptidase
  IC50: 40 µM (active)

## CO[C@H]1CN(C)C(=O)c2cc(NC(=O)c3cc(C)on3)ccc2OC[C@H](C)N(C(=O)C2CC2)C[C@H]1C
[7]
  AC50: 4.96 µM (active)

## COc1ccc(N2C(=O)c3ccccc3NC2c2ccc(OC)c(Cn3cc([N+](=O)[O-])cn3)c2)cc1 (configuration not stated)
[1]
  EC50: > 195 µM (not active)

## Cc1ncc([N+](=O)[O-])n1CC(=O)Nc1ccc(F)cc1
[1]
  EC50: 12.3 µM (active)

## O=C(Nc1ccc(Nc2ccccc2)cc1)N1CCOCC1
Large T antigen
  IC50: 7.43 µM (active)

## O=C(Cn1cnc2ccccc2c1=O)Nc1ccc2c(c1)CCC2
Leucine aminopeptidase
  IC50: 5.23 µM (active)

## CCOc1ccc(CCNC(=O)COC(=O)c2cc([N+](=O)[O-])ccc2N2CCOCC2)cc1OCC
Fatty acid synthase [4]
  IC50: 9.59 µM (active)
Fatty acid synthase [5]
  IC50: 10.1 µM (active)

## Cc1ccc2c(c1)C(=O)C(=O)N2CCCOc1ccccc1C
Genome polyprotein
  IC50: > 100 µM (active)

## COc1ccc(C(=O)NCCNc2ncc(C(F)(F)F)cc2Cl)cc1[N+](=O)[O-]
Fatty acid synthase [4]
  IC50: 12 µM (active)
Fatty acid synthase [5]
  IC50: 12.7 µM (active)

## O=C(Nn1c(C2CCCCC2)nc2ccccc2c1=O)c1ccc([N+](=O)[O-])cc1Cl
Fatty acid synthase [4]
  IC50: 18.9 µM (active)
Fatty acid synthase [5]
  IC50: 19.3 µM (active)

## COc1cc2c(cc1N=C(S)Nc1ccccc1C)oc1ccccc12
[8]
  IC50: 83.9 µM (active)
Large T antigen
  IC50: 56.4 µM (active)

## CCN1C(=O)CC(N2CCC(Nc3ccc(OC)cc3)CC2)C1=O (configuration not stated)
Large T antigen
  IC50: 57.7 µM (active)
[6]
  AC50: 2.09 µM (active)

## COc1ccc(C2CC23N=C(c2ccccc2)OC3=O)cc1 (configuration not stated)
Fatty acid synthase [4]
  IC50: 0.712 µM (active)
Fatty acid synthase [5]
  IC50: 0.724 µM (active)

## COc1ccc(S(=O)(=O)N2CCCCCC2)cc1C(=O)OCC(=O)NC(C)(C)C
[1]
  EC50: > 195 µM (not active)

## CN1C[C@H](C(=O)NC2(C)OC3(O)[C@@H]4CCCN4C(=O)[C@H](Cc4ccccc4)N3C2=O)CC2c3cccc4[nH]cc(c34)C[C@H]21 (some centres not stated)
Fatty acid synthase [4]
  IC50: 11.8 µM (active)
Fatty acid synthase [5]
  IC50: 10.3 µM (active)

## CC(C)[C@H](NC(=O)Nc1ccc(Oc2ccccc2)cc1)C(=O)O
Leucine aminopeptidase
  IC50: 15.7 µM (active)
Protein RecA
  EC50: > 380 µM (inactive)

## CCC(=O)N1[C@H](CO)[C@H](c2ccc(C3=CCCCC3)cc2)[C@H]1CNCC1CCC1
[7]
  AC50: 3.46 µM (active)

## CCCC(=O)N1CC2(C1)CN(Cc1ccc(Cl)cc1)[C@@H](CO)c1[nH]c3cc(OC)ccc3c12
[7]
  AC50: 5.26 µM (active)

## O=C(O)CN1C(=O)/C(=C\c2ccccc2OCc2ccc(F)cc2)SC1=S
Genome polyprotein
  IC50: 43.2 µM (active)

## Nc1c(Br)cc(Br)c2c1C(=O)c1c(cccc1S(=O)(=O)O)C2=O
Genome polyprotein
  IC50: 96.1 µM (active)

## COC(=O)CC(NC(=O)Nc1ccc(C)cc1)c1cccc([N+](=O)[O-])c1 (configuration not stated)
Fatty acid synthase [4]
  IC50: 8.7 µM (active)
Fatty acid synthase [5]
  IC50: 11.5 µM (active)

## Cc1nn(CCOc2ccc(Br)cc2)c(C)c1[N+](=O)[O-]
Fatty acid synthase [4]
  IC50: 24.6 µM (inactive)
Fatty acid synthase [5]
  IC50: 15.9 µM (active)
